{
  "source": "patent US4668684A",
  "about": "“Combination of flupirtin and anticholinergic acting spasmolytic” (priority 1985, dated 1987)",
  "key": {"[1]": {"system": "gall bladder of the mouse", "assay": "Gall bladder model on the mouse, spasmolytic effect", "format": "in vivo, NMRI-Mouse", "details": "alone; for ED50: Mus musculus, po, peroral, linear regression", "protocol": "The experiment is carried out relying on the methods of […] and Toson, J. Pharmacol. Methods Volume 7, pages 193 et. seq. (1982). The principle of this method is the gravimetric measurement of the gall bladder of the mouse. The gall bladder was stimulated through dispensation of egg yolk for delivery of bile. This delivery was carried out through natural spasms of the gall bladder. By previously dispensing a spasmolytically acting test material these spasms of the gall bladder were retarded and therewith likewise the delivery of bile. Thus the heavier the gall bladder is after dispensing the egg yolk the less bile it has delivered. The weight of the gall bladder in this test therefore is a measure of the spasmolytic effect of a material. […] The control animals received Methocel in the corresponding amount. […] Because of the evaluation 2 control groups must be present. […] The egg yolk suspension consisted of 3 parts by weight egg yolk in 7 parts by weight NaCl 0.9%. For this reason control group No. 1 also received 1 ml NaCl 0.9%. […] The gall bladder was prepared and weighed. The evaluation was carried out according to the formula: [(A-B)/(C-B)]×100=% Activity […]"}, "[2]": {"system": "guinea pig small intestine", "assay": "Spasmolytic effect on the guinea pig small intestine in situ (acetylcholine spasm)", "format": "in vivo", "details": "for % Spasmolytic Effect / Spasmolytic activity (in words): alone; for % Spasmolytic Effect: negative value; for Spasmolytic activity (in words): intraduodenally", "protocol": "A balloon catheter was introduced into the ileum of guinea pigs narcotized with urethane (1.8 g/kg subcutaneously) after tracheotomy (tying up a tracheal channel to make breathing easier) and the catheter filled with air. Rhythmic contractions were carried out by the intestine, the so-called […] (dependent upon filling), through which a pressure is exerted on the rubber balloon. The pressure […] changes were recorded on a linear recorder via a pressure recorder connected to the balloon catheter and a carrier frequency bridge (TF of Hellige Co.). On one there can be measured the spontaneous […], on the other the spasms released by superfusion of […] (acetylcholine iodide, barium chloride or carbachol). By previously giving the […] intravenously or intraduodenally the height of the spasms released is retarded and can be determined in percent spasmolysis compared to a starting value. There is given as spasmolytic effect or spasmolysis how great a percent of spasm is liberated by the spasmogen (e.g. acetylcholine iodide) compared to the value which originates from the spasmogen (on the same animal)."}, "[3]": {"system": "gastrointestinal passage (guinea pigs)", "assay": "Carbon transport model (influence on the gastrointestinal passage)", "format": "in vivo, guinea pig", "details": "alone; for ED50: peroral, linear regression; for Spasmolytic Effect, Retardation in %: negative value", "protocol": "Relying on Komlus and Pet/o/ cz (and modifications) (1970) Arzneim Forsch. Volume 20, pages 1338-1357 guinea pigs received 30 minutes after being given the substance a 10% carbon suspension in demineralized water in a volume of 1 ml/animal dispensed with the stomach probe. 0.5 hours later the animals were killed and starting from the stomach there was measured on one animal the entire length of intestine, on the others the length of the stretch blackened by the carbon. The stretch changed by the carbon was calculated in percent of the entire length in order to compensate for the different intestinal lengths of the individual animals in the evaluation of the effect of the substance. The effect on the gastro-intestinal passage is given from the comparison between the control and the animals (average value) treated with the substances. Ascertaining the ED50 (dosage in mg/kg at which there is 50% retardation of the carbon transport) is by means of linear regression.\nRetardation of carbon transport signifies spasmolytic effect. The greater this retardation the greater also is the spasmolytic effect.\n*Calculation of the ED50 by means of linear regression"}, "[4]": {"system": "writhing syndrome (mouse)", "assay": "Acetic acid test (Writhing test) on the mouse, analgetic effect", "format": "in vivo, NMRI-Mouse", "details": "alone; for ED50: Mus musculus, po, 0.5 h, read-out: ED50 after 30 minutes; for Analgetic Effect in %: average of 10 mice"}, "in vivo": {"assay": "in vivo", "details": "mouse, po"}},
  "note": "Counter-ions that a name gives are not always drawn. Like-named read-outs stand apart in the source and are kept apart here.",
  "data": [
    {"smiles": "CCCC[N+]1(C)C2CC(OC(=O)C(CO)c3ccccc3)CC1C1OC12", "note": "(stereo not shown) [Butylscopolammonium bromide, butylscopolammonium bromide]", "values": [
      {"measurement": "ED50", "setting": "[1]", "result": 117, "unit": "mg/kg"},
      {"measurement": "Spasmolytic Effect in %", "setting": "[1]; 3.0 mg/kg peroral", "result": 4.6, "unit": "%"},
      {"measurement": "Spasmolytic Effect in %", "setting": "[1]; 10.0 mg/kg peroral", "result": 19.1, "unit": "%"},
      {"measurement": "Spasmolytic Effect in %", "setting": "[1]; 30.0 mg/kg peroral", "result": 20.7, "unit": "%"},
      {"measurement": "Spasmolytic Effect in %", "setting": "[1]; 100.0 mg/kg peroral", "result": 35.9, "unit": "%"},
      {"measurement": "Spasmolytic Effect in %", "setting": "[1]; 300.0 mg/kg peroral", "result": 76.6, "unit": "%"},
      {"measurement": "% Spasmolytic Effect", "setting": "[2]; 50.0 mg/kg intraduodenally, 30 minutes after dispensation", "result": -13.1, "unit": "%"},
      {"measurement": "% Spasmolytic Effect", "setting": "[2]; 100.0 mg/kg intraduodenally, 30 minutes after dispensation", "result": -37.9, "unit": "%"},
      {"measurement": "% Spasmolytic Effect", "setting": "[2]; 200.0 mg/kg intraduodenally, 30 minutes after dispensation", "result": -35.0, "unit": "%"},
      {"measurement": "Spasmolytic activity (in words)", "setting": "[2]", "result": "no dosage dependent spasmolytic activity"},
      {"measurement": "ED50", "setting": "[3]; Cavia porcellus, po, read-out: ED50", "result": 132, "unit": "mg/kg"},
      {"measurement": "Spasmolytic Effect, Retardation in %", "setting": "[3]; 30.0 mg/kg peroral", "result": -8.16, "unit": "%"},
      {"measurement": "Spasmolytic Effect, Retardation in %", "setting": "[3]; 100.0 mg/kg peroral", "result": -58.39, "unit": "%"},
      {"measurement": "Spasmolytic Effect, Retardation in %", "setting": "[3]; 300.0 mg/kg peroral", "result": -61.62, "unit": "%"},
      {"measurement": "ED50", "setting": "[4]; per os, linear regression", "result": 1.5, "unit": "mg/kg"},
      {"measurement": "Analgetic Effect in %", "setting": "[4]; 0.5 mg/kg per os", "result": 22.4, "unit": "%"},
      {"measurement": "Analgetic Effect in %", "setting": "[4]; 1.0 mg/kg per os", "result": 48.4, "unit": "%"},
      {"measurement": "Analgetic Effect in %", "setting": "[4]; 2.0 mg/kg per os", "result": 64.6, "unit": "%"},
      {"measurement": "Analgetic Effect in %", "setting": "[4]; 4.0 mg/kg per os", "result": 59.0, "unit": "%"}
    ]},
    {"smiles": "CC[N+](C)(CC)CCOC(C)(c1ccccc1)C1CC2C=CC1C2.[Br-]", "note": "(stereo not shown) [Ciclonium bromide]", "values": [
      {"measurement": "Analgetic Effect in %", "setting": "[4]; 0.01 mg/kg per os", "result": 18.5, "unit": "%"},
      {"measurement": "Analgetic Effect in %", "setting": "[4]; 0.1 mg/kg per os", "result": 46.3, "unit": "%"},
      {"measurement": "Analgetic Effect in %", "setting": "[4]; 0.5 mg/kg per os", "result": 53.1, "unit": "%"},
      {"measurement": "ED50 after 30 minutes", "setting": "[4]; per os, linear regression", "result": 0.26, "unit": "mg/kg"}
    ]},
    {"smiles": "CCOC(=O)Nc1ccc(NCc2ccc(F)cc2)nc1N", "note": "[Flupirtin (Gluconate), 2-amino-3-carbethoxyamino-6-(4-fluoro-benzylamino)-pyridine]", "values": [
      {"measurement": "Analgetic Effect in %", "setting": "[4]; 0.56 mg/kg per os", "result": 19.2, "unit": "%"},
      {"measurement": "Analgetic Effect in %", "setting": "[4]; 1.12 mg/kg per os", "result": 28.0, "unit": "%"},
      {"measurement": "Analgetic Effect in %", "setting": "[4]; 2.24 mg/kg per os", "result": 37.6, "unit": "%"},
      {"measurement": "Analgetic Effect in %", "setting": "[4]; 4.47 mg/kg per os", "result": 46.4, "unit": "%"},
      {"measurement": "Analgetic Effect in %", "setting": "[4]; 8.93 mg/kg per os", "result": 38.4, "unit": "%"},
      {"measurement": "Analgetic Effect in %", "setting": "[4]; 17.85 mg/kg per os", "result": 22.4, "unit": "%"},
      {"measurement": "Analgetic Effect in %", "setting": "[4]; 35.7 mg/kg per os", "result": 61.6, "unit": "%"}
    ]},
    {"smiles": "CCOC(=O)Nc1ccc(NCc2ccc(F)cc2)nc1N", "note": "[Flupirtin (HCl), 2-amino-3-carbethoxyamino-6-(4-fluoro-benzylamino)-pyridine]", "values": [
      {"measurement": "ED50", "setting": "[1]", "result": 2.4, "unit": "mg/kg"},
      {"measurement": "Spasmolytic Effect in %", "setting": "[1]; 1.0 mg/kg peroral", "result": 30.06, "unit": "%"},
      {"measurement": "Spasmolytic Effect in %", "setting": "[1]; 3.0 mg/kg peroral", "result": 64.36, "unit": "%"},
      {"measurement": "Spasmolytic Effect in %", "setting": "[1]; 10.0 mg/kg peroral", "result": 69.25, "unit": "%"},
      {"measurement": "Spasmolytic Effect, Retardation in %", "setting": "[3]; 20.0 mg/kg peroral", "result": -11.73, "unit": "%"},
      {"measurement": "Spasmolytic Effect, Retardation in %", "setting": "[3]; 40.0 mg/kg peroral", "result": -21.55, "unit": "%"},
      {"measurement": "Spasmolytic Effect, Retardation in %", "setting": "[3]; 80.0 mg/kg peroral", "result": -18.70, "unit": "%"},
      {"measurement": "ED50", "setting": "[3]", "result": "not dosage depen-"}
    ]},
    {"smiles": "CCOC(=O)Nc1ccc(NCc2ccc(F)cc2)nc1N", "note": "[Flupirtin (Maleate), 2-amino-3-carbethoxyamino-6-(4-fluoro-benzylamino)-pyridine]", "values": [
      {"measurement": "Spasmolytic effect / ED50 (in words)", "setting": "[2]; alone, 10.0, 30.0 and 50.0 mg/kg intraduodenally, 30 minutes after dispensation", "result": "no spasmolytic"},
      {"measurement": "ED50", "setting": "[4]; per os, linear regression", "result": 44.7, "unit": "mg/kg"},
      {"measurement": "Analgetic Effect in %", "setting": "[4]; 20.0 mg/kg per os", "result": 12.0, "unit": "%"},
      {"measurement": "Analgetic Effect in %", "setting": "[4]; 40.0 mg/kg per os", "result": 54.0, "unit": "%"},
      {"measurement": "Analgetic Effect in %", "setting": "[4]; 80.0 mg/kg per os", "result": 70.0, "unit": "%"}
    ]},
    {"smiles": "CCOC(=O)Nc1ccc(NCc2ccc(F)cc2)nc1N", "note": "[Flupirtin, 2-amino-3-carbethoxyamino-6-(4-fluoro-benzylamino)-pyridine]", "values": [
      {"measurement": "LD50", "setting": "in vivo", "result": 552, "unit": "mg/kg"},
      {"measurement": "Spasmolytic activity (in words)", "setting": "[2]", "result": "no spasmolytic activity"},
      {"measurement": "ED50", "setting": "[3]", "result": "cannot be calculated"}
    ]}
  ]
}
